Experiments:
[1] = target: T1, B16F10 cellular tyrosinase (Mus musculus, UniProt P11344); assay: Cellular tyrosinase activity assay using B16F10 cells; type: cell-based, murine; details: 1, 2, and 5 μM, IBMX 200 μM plus α-MSH 1 μM, 72 h
T1 construct: endogenous in cells; host or cells: B16F10 murine cells, stimulated with α-MSH and IBMX
T1 sequence (P11344 19-533): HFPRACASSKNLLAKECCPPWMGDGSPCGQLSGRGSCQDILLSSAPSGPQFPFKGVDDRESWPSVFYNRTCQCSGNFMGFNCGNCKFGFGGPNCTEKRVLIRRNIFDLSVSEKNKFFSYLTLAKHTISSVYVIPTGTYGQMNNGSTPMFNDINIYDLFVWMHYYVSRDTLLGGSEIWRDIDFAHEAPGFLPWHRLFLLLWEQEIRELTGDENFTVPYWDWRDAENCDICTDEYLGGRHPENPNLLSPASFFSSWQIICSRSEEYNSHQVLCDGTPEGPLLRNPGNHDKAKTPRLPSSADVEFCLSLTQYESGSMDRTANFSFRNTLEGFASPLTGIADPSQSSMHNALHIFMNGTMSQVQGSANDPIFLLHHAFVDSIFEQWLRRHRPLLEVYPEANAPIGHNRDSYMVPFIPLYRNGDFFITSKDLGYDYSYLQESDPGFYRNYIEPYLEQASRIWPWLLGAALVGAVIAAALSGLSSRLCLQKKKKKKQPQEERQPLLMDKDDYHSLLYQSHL
Protocol: After 72 h of incubation, the B16F10 cellular tyrosinase inhibitory activity was evaluated by measuring the optical density at 475 nm.
To evaluate the effect of compounds 5 and 9 on cellular tyrosinase activity, B16F10 cells (5000 cells/well) were inoculated in a 6-well plate and cultured for 24 h under the same conditions as the cell culture. […] The plate was incubated in a 5% CO2 incubator maintained at 37 °C for 1 h. Each well was treated with stimulators (1 μM α-MSH [Alomone Labs^TM, Jerusalem, Israel] and 200 μM IBMX [Thermo Fisher, Rockford, IL, USA]) and incubated in a CO2 incubator for 72 h. The cells were rinsed twice with PBS (pH 7.4) and treated with 100 μL lysis buffer solution consisting of Triton X-100 (1%; 5 μL), phosphate buffer (50 mM; pH 6.5; 90 μL), and phenylmethanesulfonyl fluoride (2 mM; 5 μL). The lysates were placed for 30 min at −80 °C. After centrifuging at 10,000 g and 4 °C for 10 min, an aliquot (80 μL) of the supernatants was transferred to each well of a 96-well plate, and 20 μL of L-dopa solution (10 mM) was added to each well. The optical density at 475 nm was recorded every min for 10 min to determine cellular tyrosinase activity.

HaCaT cells = assay: Cytotoxicity assay on HaCaT cells (EZ-Cytox); type: cell-based, human; details: 1, 2, 5, 10, and 20 μM, 24 h
Protocol: In addition to melanocytes, keratinocytes are the primary cells present in the epidermis. […] Each compound was treated at concentrations of 0, 1, 2, 5, 10, and 20 μM for 24 h, and cell viability was measured using the EZ-Cytox solution.
The effect of compounds 5 and 9 on cell viability of HaCaT and B16F10 cells was assessed using an EZ-Cytox solution (EZ-1000®, DoGenBio, Seoul, Republic of Korea). HaCaT (5 × 10^3 cells/well) and B16F10 (1 × 10^3 cells/well) cells were seeded in a 96-well plate, respectively, and cultured for 24 h under the same conditions as the cell culture. Each well was treated with 5 and 9 at 0, 1, 2, and 5 μM for B16F10 cells and 0, 1, 2, 5, 10, and 20 μM for HaCaT cells. The plates were incubated for 72 h for B16F10 cells and 24 h for HaCaT cells under a CO2 incubator. Each well was treated with the EZ-Cytox solution (10 μL), and the plate was left for 2 h under a CO2 incubator. Well optical density was measured at 450 nm to determine cytotoxicity.

mushroom tyrosinase = mushroom tyrosinase (Agaricus bisporus, UniProt C7FF04); assay: Kinetic analysis of mushroom tyrosinase (Lineweaver–Burk and Dixon plots); type: biochemical; set-up: purchased Sigma-Aldrich; details: substrate L-dopa
mushroom tyrosinase, sequence (C7FF04 1-392): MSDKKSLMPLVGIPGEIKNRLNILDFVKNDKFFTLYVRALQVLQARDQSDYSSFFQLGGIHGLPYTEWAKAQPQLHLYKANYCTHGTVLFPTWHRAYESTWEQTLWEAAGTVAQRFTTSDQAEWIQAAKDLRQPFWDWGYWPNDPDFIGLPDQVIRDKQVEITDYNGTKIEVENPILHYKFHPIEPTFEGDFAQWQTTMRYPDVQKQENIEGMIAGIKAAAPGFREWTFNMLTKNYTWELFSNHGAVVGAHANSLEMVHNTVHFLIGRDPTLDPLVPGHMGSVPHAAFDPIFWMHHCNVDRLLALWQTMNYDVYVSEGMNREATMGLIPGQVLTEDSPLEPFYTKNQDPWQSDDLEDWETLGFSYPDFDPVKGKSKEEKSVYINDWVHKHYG
Protocol: Therefore, the mechanism of inhibition was investigated using mushroom tyrosinase. At various concentrations of L-dopa, the initial dopachrome production rate was investigated at four different concentrations of 5 (0, 20, 40, and 80 μM) and 9 (0, 0.5, 1.0, and 2.0 μM).
The Lineweaver–Burk plot for each compound was re-plotted by plotting the reciprocal of the initial dopachrome production rate vs. the […] to create a Dixon plot for each compound (Figure 3C,D for compounds 5 and 9, respectively). […] The absolute value of the x-coordinate of the merged point represents the inhibition constant (Ki), which indicates the potency of the inhibitor.
Kinetic analysis of mushroom tyrosinase was performed by recording the initial dopachrome formation rate in the presence of compounds 5 and 9. […] The optical density of dopachrome production in each well was recorded at 475 nm at 5 min intervals for 30 min. Compounds were tested at 80, 40, 20, and 0 μM for 5 and at 2, 1.0, 0.5, and 0 μM for 9, respectively. Potting the inverse of the substrate concentration vs. the reciprocal of the initial dopachrome production rate generated Lineweaver–Burk plots.

With `Oc1ccc(-c2nc3cc4c(cc3s2)OCO4)c(O)c1` [Compound 9, 4-([1,3]Dioxolo[4′,5′:4,5]benzo[1,2-d]thiazol-6-yl)benzene-1,3-diol] the cellular tyrosinase activity [1] was “significantly decreased the cellular tyrosinase activity”, the “cytotoxicity (cell viability)” value (HaCaT cells) was “None of the compounds revealed significant cytotoxicity up to 20 μM” and the Ki (mushroom tyrosinase; Dixon plot, read-out: inhibition constant (Ki)) was 380 nM. The mechanism of inhibition (mushroom tyrosinase; Lineweaver–Burk plot) was “competitive inhibitors”.
